{"source": "patent US20220264876A1", "about": "“COMPOSITIONS AND METHODS FOR ENHANCING PLANT GROWTH” (BOYCE THOMPSON INSTITUTE FOR PLANT RESEARCH, INC., priority 2019, published 2022)", "type_in_all_cases": "in vivo", "key": {"[1]": {"test_system": "Arabidopsis seeds", "assay": "Arabidopsis seed pretreatment with ascr #18: germination, growth and flowering", "experimental": "Arabidopsis seeds were pretreated 24 hours without (mock) or with 1 μM ascr #18 before planting in soil. FIG. 5A provides a graph of the number of plants at different stages of germination counted 3 days after planting. Stages of germination; 0=no germination; 1=about to germinate; 2=germinated and two-leaf stage; 3=germinated and have expanded leaves (n=60). FIG. 5B provides graphs of the surface area of germinated plants measured by taking pictures and counting pixels using Fiji software and then normalizing by the total area for each plant (n=15 pots with each pot containing 4 plants). FIG. 5C provides a graph of the percent of plants flowering at day 25 after planting in soil. FIG. 5D provides a graph of the fresh weight of above-ground (excluding root) part of the plants measured at day 25 after planting in soil. *P=0.03; **P≤0.01; ***P≤0.001; ****P≤0.0001; two-tailed t-test. The effects of ascr #18 on Arabidopsis were also studied. Arabidopsis seeds were pretreated 24 hours without (mock) or with 1 μM ascr #18 for ascr #18 before planting in soil. The number of plants at different stages of germination were counted 3 days after planting. […] Additionally, the surface area of germinated plants was measured by taking pictures and counting pixels using Fiji software. The data was then normalized by the total area for each plant. […] The percentage of plants flowering at day 25 after planting in soil was also determined. […] The fresh weight of above-ground (excluding root) part of the plants was also measured 25 days after planting."}, "[2]": {"test_system": "potato plants", "assay": "Spray treatment of four-week old potato plants with ascr #18: growth and tuber yield", "experimental": "FIGS. 6A-6B show the effects of ascr #18 on potato plants. Four-week old potato plants were pretreated without (mock) or with ascr #18 (10 nM). Potato tubers were harvested from mock and pre-treated plants. FIG. 6A provides images of tubers from one representative plant that was mock treated and one representative plant that was treated with ascr #18. FIG. 6B provides a graph of the biomass of the above-ground (excluding root) part of the potato plants. FIGS. 7A-7E show the effect of ascr #18 on potato plant growth and yield. Four-week old potato plants were sprayed once with buffer only (mock) or 10 nM ascr #18 before harvesting two weeks later. […] Potato root system (7C) and tubers (7D) harvest from treated and mock plants are presented. Each pile of tubers was from one plant. FIG. 7E presents the tuber biomass of the mock and treated plants at harvest. The effects of ascr #18 on potato were also studied. Four week old potato plants were pretreated (sprat treatment) without (mock) or with ascr #18 (10 nM). Potato tubers were harvested from mock and pre-treated plants. Each pile of tubers in FIG. 6A were from one plant. […] The above-ground (excluding root) part of the potato plants was also measured."}, "[3]": {"test_system": "wheat seeds", "assay": "Wheat seed pretreatment with ascr #18: germination/emergence and growth in soil", "details": "wheat seeds pretreated 24 hours with 10, 100, 1000 nM vs mock; 10 days after planting (FIG. 9B)", "experimental": "FIGS. 9A-9B show the effect of ascr #18 on wheat seed germination/emergence and growth. Wheat seeds were pretreated 24 hours without (mock) or with different concentrations (10, 100 and 1000 nM) of ascr #18 before planting in soil. Seed germination/emergence from soil was measured after 2, 3, 4, 5, 6, 7, 8, 9 and 10 days after planting (FIG. 9A). The height of the second node of the plants was measured […] after planting (FIG. 9B). Data are averages±s.d. (n≥12). *P≤0.05; two-tailed t-test. The effect of ascr #18 on wheat seed germination/emergence and growth was also studied. Wheat seeds were pretreated 24 hours without (mock) or with different concentrations (10, 100 and 1000 nM) of ascr #18 before planting in soil. Seed germination/emergence from soil was measured after 2, 3, 4, 5, 6, 7, 8, 9 and 10 days after planting (FIG. 9A). The height of the second node of the plants was also measured 10 days after planting."}, "[4]": {"test_system": "tomato seeds", "assay": "Tomato seed pretreatment with ascr #18: germination/emergence and growth in soil", "experimental": "Tomato seeds were pretreated 24 hours without (mock) or with different concentrations (1, 10, 100, 1000 and 10000 nM) of ascr #18 before planting on soil. The length of the plants was measured 12 days after planting. **P≤0.002; ****P≤0.00005; two-tailed t-test. FIGS. 4A-4F show the effect of ascr #18 on tomato seed germination/emergence and growth. Tomato seeds were pretreated 24 hours without (mock) or with different concentrations (10, 100, and 1000 nM) of ascr #18 before planting in soil. Seed germination/emergence from soil was measured after 4, 5, 6 and 7 days after planting (FIG. 4A). The length of plants was measured 12 and 14 days after planting (FIG. 4B). Pictures were taken 14 days after planting (FIG. 4C). **P≤0.002; ****P≤0.00005; two-tailed t-test. FIGS. 4D and 4E provide graphs of the fresh weight of above-ground (excluding root) part of the plants measured at day 21 after planting in soil for tomato seeds pretreated without (mock) or with different concentrations (0.1 and 10 μM) of ascr #18 for 24 hours (FIG. 4D) or 72 hours (FIG. 4E) before planting in soil. The length of the roots of the plants was also measured 21 days after planting (FIG. 4F). The effect of ascr #18 on was also determined on tomato plant growth. Tomato seeds were pretreated 24 hours without (mock) or with different concentrations (1, 10, 100, 1000 and 10000 nM) of ascr #18 before planting on soil. The length of the plants was measured 12 days after planting. […] Further studies on the effect of ascr #18 on tomato seed germination/emergence and growth. Tomato seeds were pretreated 24 hours without (mock) or with different concentrations (10, 100, and 1000 nM) of ascr #18 before planting in soil. Seed germination/emergence from soil was measured after 4, 5, 6 and 7 days after planting. […] The length of the plants was also measured 12 and 14 days after planting and pictures were taken 14 days after planting. […] In further experiments, tomato seeds were pretreated 24 or 72 hours without (mock) or with different concentrations (0.1 and 10 μM) of ascr #18 before planting in soil. More specifically, the tomato seeds were submerged in aqueous solutions of ascaroside for 24 hours or 72 hours directly before planting. Alternatively, seeds, (e.g., tomato seeds) can be coated with a solution of different concentrations of ascaroside containing polymeric binders commonly used for seed coating. Following treatment, the seeds can be dried and stored (e.g., for 2 weeks) before planting. The fresh weight of above-ground (excluding root) part of the plants was measured 21 days after planting. […] The length of the roots of the plants was also measured 21 days after planting."}, "[5]": {"test_system": "rice seeds", "assay": "Rice seed pretreatment with ascr #18: germination/emergence and growth in soil", "experimental": "FIGS. 1A-1D show the effect of ascr #18 on rice seed germination/emergence and growth. Rice seeds were pretreated 24 hours without (mock) or with different concentrations (10, 100 and 1000 nM) of ascr #18 before planting in soil. Seed germination/emergence from soil was measured after 7, 8, 9, 10 and 11 days after planting (FIG. 1A). The length of the plants was measured 15 days after planting (FIG. 1B) and 18 days after planting (FIG. 1C). Pictures were taken 15 days after planting (FIG. 1D). Data are averages±s.d. (n≥12). ***P≤0.0005; ****P≤0.00005; two-tailed t-test.\nFIGS. 2A-2C show the effect of ascr #18 on rice seed germination/emergence and growth. Rice seeds were pretreated 24 hours without (mock) or with different concentrations (10, 100 and 1000 nM) of ascr #18 before planting in soil. Seed germination/emergence from soil was measured after 6, 7, 8, 9 and 10 days after planting (FIG. 2A). The length of the plants was measured 10, 12, 14, 15 and 18 days after planting (FIG. 2B). The fresh biomass of the plants was measured 18 days after planting (FIG. 2C). Data are averages±s.d. (n≥14). *P≤0.05; **P≤0.005; ***P≤0.0005; ****P≤0.00005; two-tailed t-test.\nThe effect of ascr #18 on rice seed germination/emergence and growth was tested. Briefly, rice seeds were pretreated 24 hours without (mock) or with different concentrations (10, 100 and 1000 nM) of ascr #18 before planting in soil. Seed germination/emergence from soil was measured after 7, 8, 9, 10 and 11 days after planting. […] The length of plants was also measured 15 days and 18 days after planting and pictures were taken at 15 days after planting.\nFurther studies of the effect of ascr #18 on rice seed germination/emergence and growth were performed. Rice seeds were pretreated 24 hours without (mock) or with different concentrations (10, 100 and 1000 nM) of ascr #18 before planting in soil. Seed germination/emergence from soil was measured after 6, 7, 8, 9 and 10 days after planting. […] The length of plants was also measured at 10, 12, 14, 15 and 18 days after planting. […] The fresh biomass of plants was also measured 18 days after planting."}, "[6]": {"test_system": "corn seeds", "assay": "Corn seed pretreatment with ascr #18: germination/emergence and growth in soil", "experimental": "FIGS. 8A-8B show the effect of ascr #18 on corn seed germination/emergence and growth. Corn seeds were pretreated 24 hours without (mock) or with different concentrations (10, 100 and 1000 nM) of ascr #18 before planting in soil. Seed germination/emergence from soil was measured after 4, 5, 6, 7, 8, 9, 10 and 11 days after planting (FIG. 8A). The height of the second node of the plants was measured 15 days after planting (FIG. 8B). Data are averages±s.d. (n≥12). *P≤0.05; two-tailed t-test. The effect of ascr #18 on corn seed germination/emergence and growth was also studied. Corn seeds were pretreated 24 hours without (mock) or with different concentrations (10, 100 and 1000 nM) of ascr #18 before planting in soil. Seed germination/emergence from soil was measured after 4, 5, 6, 7, 8, 9, 10 and 11 days after planting. […] The height of the second node of the plants was also measured 15 days after planting."}}, "data": [{"smiles": "CC1O[C@@H](O[C@@H](C)CCCCCCCCC(=O)O)C(O)C[C@H]1O", "note": "(stereo in doubt) [ascr #18, (10R)-(3′R,5′R-dihydroxy-6′S-methyl-(2H)-tetrahydropyran-2-yloxy)-undecanoic Acid]", "values": [{"measurement": "Number of plants at different stages of germination", "setting": "[1]; Arabidopsis seeds pretreated 24 hours with 1 μM vs mock, 3 days after planting (FIG. 5A)", "result": "faster germination/emergence rate"}, {"measurement": "Fresh weight of above-ground (excluding root) part of the plants", "setting": "[1]; Arabidopsis, 1 μM vs mock, 25 days after planting (FIG. 5D)", "result": "greater weight"}, {"measurement": "Percentage of plants flowering", "setting": "[1]; Arabidopsis, 1 μM vs mock, day 25 after planting in soil (FIG. 5C)", "result": "greater plant flowering"}, {"measurement": "Surface area of germinated plants", "setting": "[1]; Arabidopsis, 1 μM vs mock, pixel counting with Fiji software, normalized (FIG. 5B)", "result": "greater plant surface area"}, {"measurement": "Biomass of the potato plants (above-ground part, tubers)", "setting": "[2]; four-week old potato plants sprayed once with 10 nM vs mock, harvest two weeks later (FIG. 6B, FIGS. 7A-7E)", "result": "greater biomass"}, {"measurement": "Potato tubers harvested", "setting": "[2]; four-week old potato plants sprayed with 10 nM vs mock (FIG. 6A)", "result": "significantly more potato tubers"}, {"measurement": "Height of the second node of the plants", "setting": "[3]", "result": "taller"}, {"measurement": "Fresh weight of above-ground (excluding root) part of the plants", "setting": "[4]; tomato seeds pretreated 24 or 72 hours with 0.1 and 10 μM vs mock, 21 days after planting (FIGS. 4D-4E), particularly with longer pretreatment", "result": "greater weight"}, {"measurement": "Seed germination/emergence from soil", "setting": "[4]; tomato seeds pretreated 24 hours with 10, 100, 1000 nM vs mock, 4-7 days after planting (FIG. 4A)", "result": "faster germination/emergence rate"}, {"measurement": "Length of the roots of the plants", "setting": "[4]; tomato, 0.1 and 10 μM vs mock, 21 days after planting (FIG. 4F)", "result": "longer roots"}, {"measurement": "Length of the plants", "setting": "[4]; tomato, 10, 100, 1000 nM for 24 hours, 12 and 14 days after planting (FIGS. 4B-4C)", "result": "taller"}, {"measurement": "Length of the plants", "setting": "[4]; tomato, seed treatment 100 nM or 1000 nM vs untreated or 10 nM, 12 days after planting (FIG. 3)", "result": "taller"}, {"measurement": "Seed germination/emergence from soil", "setting": "[5]; rice seeds pretreated 24 hours with 10, 100, 1000 nM vs mock, 7-11 days after planting (FIG. 1A)", "result": "faster germination/emergence rate"}, {"measurement": "Seed germination/emergence from soil", "setting": "[5]; rice, further study, 10, 100, 1000 nM for 24 hours vs mock, 6-10 days after planting (FIG. 2A)", "result": "faster germination/emergence rate"}, {"measurement": "Length of plants", "setting": "[5]; rice, further study, 10, 100, 1000 nM, 10, 12, 14, 15 and 18 days after planting (FIG. 2B)", "result": "faster growth"}, {"measurement": "Fresh biomass of plants", "setting": "[5]; rice, further study, 10, 100, 1000 nM, 18 days after planting (FIG. 2C)", "result": "greater biomass"}, {"measurement": "Length of plants", "setting": "[5]; rice, seed treatment 100 nM or 1000 nM vs untreated or 10 nM, 15 and 18 days after planting (FIGS. 1B-1D)", "result": "taller"}, {"measurement": "Seed germination/emergence from soil", "setting": "[6]; corn seeds pretreated 24 hours with 10, 100, 1000 nM vs mock, 4-11 days after planting (FIG. 8A)", "result": "faster germination/emergence rate"}, {"measurement": "Height of the second node of the plants", "setting": "[6]; corn, 10, 100, 1000 nM vs mock, 15 days after planting (FIG. 8B)", "result": "taller"}]}]}
